The values below come from patent publication US20050020534A1, “Method for treating diseases using HSP90-inhibiting agents in combination with antimetabolites” (Kosan Biosciences, Inc., priority 2003, published 2005).

The structures appear in SMILES notation. Where two headings read alike, the source gives them in different places.

The conditions of data set [1]: clinical trials, sole therapeutic agent, cited from earlier work.
The test system of data set [2] is ErbB2 protein. The data set can be described thus: Expression of ErbB2 protein in SKBr3 cells. Type of data set: cell-based, human.
The subject of data set [3] is ErbB2 protein. The data set can be described thus: Expression of ErbB2 protein in glioma cells. Type of data set: cell-based.
The subject of data set [4] is DLD-1 cells (human colorectal cancer cells). The data set can be described thus: MTS cell viability assay, drug combination effect analysis (combination index) in DLD-1 cells. The class given is cell-based. The note with it: combination of antimetabolite with 17-AAG, CI<1 synergism, CI=1 additivity, CI>1 antagonism; for CI values, 17-AAG Pre-Administration: 17-AAG 24 hours before antimetabolite (48 hours); for CI values, 17-AAG Post-Administration: antimetabolite 24 hours, then 17-AAG for 48 hours. As to the method: Human colon adenocarcinoma cell line, DLD-1, and human breast adenocarcinoma cell line, SKBr-3, were obtained from American Type Culture Collection (manassas, Va.). […] Other cytotoxic agents were purchased commercially from suppliers such as Sigma Chemical Co. (St. Louis, Mo.) and Sequoia Research Products (Oxford, UK). Cells were seeded in duplicate in 96-well microtiter plates at a density of 5,000 cells per well and allowed to attach overnight. […] Cell viability was determined using the MTS assay (Promega). […] Based on the IC50 values of each individual drug, combined drug treatment was designed at constant ratios of two drugs, i.e., equivalent to the ratio of their IC50. Two treatment schedules were used: In one schedule, the cells were exposed to 24 hours of 17-AAG or 17-DMAG. The drug was then added to the cells and incubated for 48 hours. […] Cell viability was determined by the MTS assay. Synergism, additivity or antagonism was determined by median effect analysis using the combination index (CI) calculated using Calcusyn (Biosoft, Cambridge, UK). The combination index is defined as follows: […] The quantities [Dx]1 and [Dx]2 represent the concentrations of the first and second drug, respectively, that when used alone provide a response of x % in the assay. […] The “enhancing” effect of two drugs can also be determined.
On the technique in general: Formazan colour is commonly taken as a measure of viable cells.

Data set [5] relates to SKBr cells (human breast cancer cells). The data set is described as follows: MTS cell viability assay, drug combination effect analysis (combination index) in SKBr-3 cells. As to conditions: combination of antimetabolite with 17-AAG, CI<1 synergism, CI=1 additivity, CI>1 antagonism; for CI values, 17-AAG Pre-Administration: 17-AAG 24 hours before antimetabolite (48 hours). Type of data set: cell-based. How it is done: Human colon adenocarcinoma cell line, DLD-1, and human breast adenocarcinoma cell line, SKBr-3, were obtained from American Type Culture Collection (manassas, Va.). […] Other cytotoxic agents were purchased commercially from suppliers such as Sigma Chemical Co. (St. Louis, Mo.) and Sequoia Research Products (Oxford, UK). Cells were seeded in duplicate in 96-well microtiter plates at a density of 5,000 cells per well and allowed to attach overnight. […] Cell viability was determined using the MTS assay (Promega). […] Based on the IC50 values of each individual drug, combined drug treatment was designed at constant ratios of two drugs, i.e., equivalent to the ratio of their IC50. Two treatment schedules were used: In one schedule, the cells were exposed to 24 hours of 17-AAG or 17-DMAG. The drug was then added to the cells and incubated for 48 hours. […] Cell viability was determined by the MTS assay. Synergism, additivity or antagonism was determined by median effect analysis using the combination index (CI) calculated using Calcusyn (Biosoft, Cambridge, UK). The combination index is defined as follows: […] The “enhancing” effect of two drugs can also be determined.

As to `C=CCNC1=C2C[C@@H](C)C[C@H](OC)[C@H](O)[C@@H](C)/C=C(\C)[C@H](OC(N)=O)[C@@H](OC)/C=C\C=C(/C)C(=O)NC(=CC1=O)C2=O` [17-AAG, 17-(allylamino)-17-desmethoxygeldanamycin], the MTD result in data set [1] (daily ×5 schedule) is recorded as “about 40 mg/m^2”; in data set [1] (once-weekly regimen) it was “about 308 mg/m^2”; in data set [1] (twice-weekly regimen), “about 220 mg/m^2”. For the same compound, the “expression of ErbB2 protein” value with ErbB2 protein [2] and with ErbB2 protein [3] was “reduced the expression” in each case.

As to `CO[C@H]1/C=C\C=C(/C)C(=O)NC2=CC(=O)C(NCCN(C)C)=C(C[C@@H](C)C[C@H](OC)[C@H](O)[C@@H](C)/C=C(\C)[C@@H]1OC(N)=O)C2=O` [17-DMAG, 17-(2-dimethylaminoethyl)amino-17-desmethoxygeldanamycin], the “expression of ErbB2 protein” value in the data set on ErbB2 protein [2] and in the data set on ErbB2 protein [3] was “reduced the expression” throughout.

For the compound `CN(Cc1cnc2nc(N)nc(N)c2n1)c1ccc(C(=O)N[C@@H](CCC(=O)O)C(=O)O)cc1` [Methotrexate, methotrexate], in data set [4], the “CI values, 17-AAG Pre-Administration” value turned out to be 0.83 ± 0.14 and the “CI values, 17-AAG Post-Administration” value was found to be 0.71 ± 0.35.

On to `Nc1ccn([C@@H]2O[C@H](CO)[C@@H](O)C2(F)F)c(=O)n1` [Gemcitabine, gemcitabine], for which the “CI values, 17-AAG Pre-Administration” value in data set [5] was 1.79 ± 0.54; in data set [4], 0.45 ± 0.19. In addition, the “CI values, 17-AAG Post-Administration” value in data set [5] (antimetabolite 24 hours, then 17-AAG for 48 hours) is reported as 0.86 ± 0.19; in data set [4] it was 0.77 ± 0.23.

For `O=c1[nH]cc(F)c(=O)[nH]1` [5-Fluorouracil, 5-fluorouracil], in data set [5], the “CI values, 17-AAG Pre-Administration” value was 0.65 ± 0.48. In addition, in data set [4], the “CI values, 17-AAG Pre-Administration” value is 0.96 ± 0.16 and the “CI values, 17-AAG Post-Administration” value came out at 0.33 ± 0.08.
